Experimental data from paper PMC6514978, “Synthesis, Antibacterial Activities, Mode of Action and Acute Toxicity Studies of New Oxazolidinone-Fluoroquinolone Hybrids” (Molecules, 2019).
Values after ≈ are worked out from the molar mass of the structure shown.

Columns and labels:
[1] = system: MRSA (13B262); assay: MIC, broth microdilution (CLSI), clinical isolate; assay type: cell-based; conditions: Staphylococcus aureus
From the text: (§1) 6 standard strains and 3 clinical isolates were used to the preliminary evaluation of in vitro antibacterial activities of oxazolidinone-fluoroquinolone hybrids. For the further evaluation of hybrids OBP-4 and OBP-5, 263 clinical isolates including S. aureus (46), S. haemolyticus(32), S. epidermidis (10), E. faecalis (72), E. faecium (47), S. pneumoniae (13), H. parasuis (34), S. suis (9), and 8 resistant strains including MRSA, MRSE, CIP-resistant S. aureus and S. haemolyticus, VAN and quinolone-resistant S. pneumoniae, LZD-resistant E. faecalis, LZD/VAN and quinolone-resistant E. faecium were collected and tested.
(§2) Susceptibility testing of oxazolidinone-fluoroquinolone hybrids against various bacteria was performed by the broth microdilution method as outlined by the Clinical and Laboratory Standards Institute (CLSI). Three types of media, including cation-adjusted Mueller Hinton broth, Haemophilus Test Medium and cation-adjusted Mueller Hinton broth that contained 3%–5% lysed horse blood, were used to culture the corresponding bacteria. All compounds including comparator drugs were dissolved in an appropriate solvent at a concentration of 2.048 mg/mL and then serially diluted two-fold to provide the required concentrations. A final inoculum of 5 × 10^5 CFU/mL was used and plates were read after incubation for 16–24 h at 35 °C. […] Standard quality control strains (ATCC) were included throughout. Each determination was repeated in triplicate.

[2] = system: S. agalactiae^R (13B317), levofloxacin-resistant S. agalactiae; assay: MIC, broth microdilution (CLSI), clinical isolate; assay type: cell-based; conditions: Streptococcus agalactiae; levofloxacin-resistant S. agalactiae (13B317)
From the text: as §1, §2

[3] = system: E. coli (ATCC25922); assay: MIC, broth microdilution (CLSI), standard strain; assay type: cell-based; conditions: Escherichia coli; E. coli (ATCC25922); read-out: MIC
From the text: as §1, §2

[4] = system: E. faecalis (ATCC29212); assay: MIC, broth microdilution (CLSI), standard strain; assay type: cell-based; conditions: Enterococcus faecalis; E. faecalis (ATCC29212); read-out: MIC
From the text: as §1, §2

[5] = system: H. influenzae (ATCC49247); assay: MIC, broth microdilution (CLSI), standard strain; assay type: cell-based; conditions: Haemophilus influenzae
From the text: as §1, §2

[6] = system: P. Aeruginosa (ATCC27853); assay: MIC, broth microdilution (CLSI), standard strain; assay type: cell-based; conditions: Pseudomonas aeruginosa; P. Aeruginosa (ATCC27853); read-out: MIC
From the text: as §1, §2

[7] = system: S. aureus (ATCC29213); assay: MIC, broth microdilution (CLSI), standard strain; assay type: cell-based; conditions: Staphylococcus aureus
From the text: as §1, §2

[8] = system: S. pneumoniae (ATCC49619); assay: MIC, broth microdilution (CLSI), standard strain; assay type: cell-based; conditions: Streptococcus pneumoniae
From the text: as §1, §2

[9] = system: S. aureus (46) clinical isolates; assay: Susceptibility of clinical isolates (MIC); assay type: cell-based, Staphylococcus aureus; conditions: for Cumulative % of strains inhibited at MIC / No. of strains inhibited at MIC: S. aureus (46)
Method in brief: (§3)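 CLSI broth microdilution in cation-adjusted Mueller Hinton broth, Haemophilus Test Medium or MHB with 3–5% lysed horse blood, according to organism. The final inoculum was 5 × 10^5 CFU/mL and plates were read after 16–24 h at 35 °C. Determinations were run in triplicate with ATCC QC strains.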

[10] = system: S. haemolyticus (32) clinical isolates; assay: Susceptibility of clinical isolates (MIC); assay type: cell-based, Staphylococcus haemolyticus
Method in brief: as §3

[11] = system: S. epidermidis (10) clinical isolates; assay: Susceptibility of clinical isolates (MIC); assay type: cell-based, Staphylococcus epidermidis
Method in brief: as §3

[12] = system: S. pneumoniae (13) clinical isolates; assay: Susceptibility of clinical isolates (MIC); assay type: cell-based, Streptococcus pneumoniae; conditions: for Cumulative % of strains inhibited at MIC / No. of strains inhibited at MIC: S. pneumoniae (13)
Method in brief: as §3

[13] = system: E. faecium (47) clinical isolates; assay: Susceptibility of clinical isolates (MIC); assay type: cell-based, Enterococcus faecium; conditions: for Cumulative % of strains inhibited at MIC / No. of strains inhibited at MIC: E. faecium (47)
Method in brief: as §3

[14] = system: MRSE; assay: MIC against drug-resistant strain; assay type: cell-based, S. epidermidis; conditions: Staphylococcus epidermidis, read-out: MIC
Method in brief: as §3

[15] = system: LZD-resistant E. faecalis; assay: microbe, parasite or virus in culture; assay type: cell-based; conditions: Enterococcus faecalis
Method in brief: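 Triplicate MIC determinations by CLSI broth microdilution, with ATCC quality control strains alongside. Growth medium depended on the species: cation-adjusted MHB, with or without 3%–5% lysed horse blood, or Haemophilus Test Medium. Final inoculum 5 × 10^5 CFU/mL; read at 16–24 h, 35 °C.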

[16] = system: CIP-resistant S. aureus; assay: MIC against drug-resistant strain; assay type: cell-based; conditions: Staphylococcus aureus; S. aureus, CIP-resistant; read-out: MIC
Method in brief: as §3

[17] = system: CIP-resistant S. haemolyticus; assay: MIC against drug-resistant strain; assay type: cell-based; conditions: Staphylococcus haemolyticus; S. haemolyticus, CIP-resistant; read-out: MIC
Method in brief: as §3

[18] = system: LZD and quinolone-resistant E. faecium; assay: MIC against drug-resistant strain; assay type: cell-based; conditions: Enterococcus faecium; E. faecium, LZD and quinolone-resistant; read-out: MIC
Method in brief: as §3

[19] = system: MRSA; assay: MIC against drug-resistant strain; assay type: cell-based; conditions: Staphylococcus aureus, read-out: MIC
Method in brief: as §3

[20] = system: VAN and quinolone-resistant E. faecium; assay: MIC against drug-resistant strain; assay type: cell-based; conditions: Enterococcus faecium; E. faecium, VAN and quinolone-resistant; read-out: MIC
Method in brief: as §3

[21] = system: VAN and quinolone-resistant S. pneumoniae; assay: MIC against drug-resistant strain; assay type: cell-based; conditions: Streptococcus pneumoniae; S. pneumoniae, VAN and quinolone-resistant; read-out: MIC
Method in brief: as §3

[22] = S. haemolyticus (32), MIC 0.125 µg/mL

Question: With `CC1Sc2c(C(=O)O)c(=O)c3cc(F)c(N4CCC(O)(COc5ccc(N6C[C@H](CO)OC6=O)cc5F)CC4)cc3n21` (stereo partly drawn) [OBP-5] as the compound, how does the MIC [1] read?
Answer: 0.5 µg/mL (≈ 0.828 µM)

Question: What about the MIC [2] of the same compound?
Answer: 0.031 µg/mL (≈ 0.0514 µM)

Question: What about the MIC [3] of the same compound?
Answer: 4 µg/mL (≈ 6.63 µM)

Question: And the MIC [4]?
Answer: 1 µg/mL (≈ 1.66 µM)

Question: What about the MIC [5] of the same compound?
Answer: 0.25 µg/mL (≈ 0.414 µM)

Question: And the MIC [6]?
Answer: 64 µg/mL (≈ 106 µM)

Question: What about the MIC [7] of the same compound?
Answer: 0.25 µg/mL (≈ 0.414 µM)

Question: And the MIC [8]?
Answer: 0.062 µg/mL (≈ 0.103 µM)

Question: And the “Cumulative % of strains inhibited at MIC” value ([9]; MIC 0.125 µg/mL)?
Answer: 97.8%

Question: And the “No. of strains inhibited at MIC” value ([9]; MIC 0.125 µg/mL)?
Answer: 3

Question: What about the “Cumulative % of strains inhibited at MIC” value ([9]; MIC […]) of the same compound?
Answer: 100.0%

Question: What about the “No. of strains inhibited at MIC” value ([9]; MIC […]) of the same compound?
Answer: 1

Question: And the “Cumulative % of strains inhibited at MIC” value ([9]; MIC ≤[…])?
Answer: 91.3%

Question: And the “No. of strains inhibited at MIC” value ([9]; MIC ≤[…])?
Answer: 42

Question: And the MIC50 ([9]; Staphylococcus aureus, S. aureus, 46 clinical isolates, read-out: MIC50)?
Answer: ≤ 0.0625 µg/mL

Question: And the MIC90 ([9]; Staphylococcus aureus, S. aureus, 46 clinical isolates, read-out: MIC90)?
Answer: ≤ 0.0625 µg/mL

Question: What about the MIC ([9]; Staphylococcus aureus, S. aureus, 46 clinical isolates, read-out: MIC Range) of the same compound?
Answer: 0.0625 to 0.25 µg/mL (≈ 0.104 to 0.414 µM)

Question: What about the “Cumulative % of strains inhibited at MIC” value [10, 22] of the same compound?
Answer: 100.0%

Question: What about the “No. of strains inhibited at MIC” value [10, 22] of the same compound?
Answer: 2

Question: What about the “No. of strains inhibited at MIC” value ([10]; S. haemolyticus (32), MIC ≤[…]) of the same compound?
Answer: 30

Question: What about the MIC50 ([10]; Staphylococcus haemolyticus, S. haemolyticus, 32 clinical isolates, read-out: MIC50) of the same compound?
Answer: ≤ 0.0625 µg/mL

Question: What about the MIC90 ([10]; Staphylococcus haemolyticus, S. haemolyticus, 32 clinical isolates, read-out: MIC90) of the same compound?
Answer: ≤ 0.0625 µg/mL

Question: And the MIC ([10]; Staphylococcus haemolyticus, S. haemolyticus, 32 clinical isolates, read-out: MIC Range)?
Answer: 0.0625 to 0.125 µg/mL (≈ 0.104 to 0.207 µM)

Question: What about the “No. of strains inhibited at MIC” value ([11]; S. epidermidis (10), MIC 0.125 µg/mL) of the same compound?
Answer: 2

Question: And the “Cumulative % of strains inhibited at MIC” value ([11]; S. epidermidis (10), MIC ≤[…])?
Answer: 80.0%

Question: What about the “No. of strains inhibited at MIC” value ([11]; S. epidermidis (10), MIC ≤[…]) of the same compound?
Answer: 8

Question: And the MIC50 ([11]; Staphylococcus epidermidis, S. epidermidis, 10 clinical isolates, read-out: MIC50)?
Answer: ≤ 0.0625 µg/mL

Question: And the MIC90 ([11]; Staphylococcus epidermidis, S. epidermidis, 10 clinical isolates, read-out: MIC90)?
Answer: 0.125 µg/mL (≈ 0.207 µM)

Question: And the MIC ([11]; Staphylococcus epidermidis, S. epidermidis, 10 clinical isolates, read-out: MIC Range)?
Answer: 0.0625 to 0.125 µg/mL (≈ 0.104 to 0.207 µM)

Question: What about the “Cumulative % of strains inhibited at MIC” value ([12]; MIC 0.125 µg/mL) of the same compound?
Answer: 84.6%

Question: And the “No. of strains inhibited at MIC” value ([12]; MIC 0.125 µg/mL)?
Answer: 4

Question: And the “Cumulative % of strains inhibited at MIC” value ([12]; MIC […])?
Answer: 100.0%

Question: And the “No. of strains inhibited at MIC” value ([12]; MIC […])?
Answer: 2

Question: And the “Cumulative % of strains inhibited at MIC” value ([12]; MIC ≤[…])?
Answer: 53.8%

Question: And the “No. of strains inhibited at MIC” value ([12]; MIC ≤[…])?
Answer: 7

Question: What about the “MIC Range” value ([12]; S. pneumoniae, 13 clinical isolates) of the same compound?
Answer: ≤0.0625 to 0.25 µg/mL

Question: What about the MIC50 ([12]; Streptococcus pneumoniae, S. pneumoniae, 13 clinical isolates, read-out: MIC50) of the same compound?
Answer: ≤ 0.0625 µg/mL

Question: What about the MIC90 ([12]; Streptococcus pneumoniae, S. pneumoniae, 13 clinical isolates, read-out: MIC90) of the same compound?
Answer: 0.25 µg/mL (≈ 0.414 µM)

Question: And the “Cumulative % of strains inhibited at MIC” value ([13]; MIC 0.125 µg/mL)?
Answer: 21.3%

Question: What about the “No. of strains inhibited at MIC” value ([13]; MIC 0.125 µg/mL) of the same compound?
Answer: 7

Question: What about the “Cumulative % of strains inhibited at MIC” value ([13]; MIC 0.5 µg/mL) of the same compound?
Answer: 97.9%

Question: What about the “No. of strains inhibited at MIC” value ([13]; MIC 0.5 µg/mL) of the same compound?
Answer: 3

Question: What about the “Cumulative % of strains inhibited at MIC” value ([13]; MIC 1 µg/mL) of the same compound?
Answer: 100.0%

Question: And the “No. of strains inhibited at MIC” value ([13]; MIC 1 µg/mL)?
Answer: 1

Question: What about the “Cumulative % of strains inhibited at MIC” value ([13]; MIC […]) of the same compound?
Answer: 91.5%

Question: What about the “No. of strains inhibited at MIC” value ([13]; MIC […]) of the same compound?
Answer: 33

Question: And the “Cumulative % of strains inhibited at MIC” value ([13]; MIC ≤[…])?
Answer: 6.4%

Question: What about the “No. of strains inhibited at MIC” value ([13]; MIC ≤[…]) of the same compound?
Answer: 3

Question: And the “fold higher activity than comparator agents” value ([13]; E. faecium clinical isolates)?
Answer: 16- to 128 fold

Question: What about the “MIC Range” value ([13]; E. faecium, 47 clinical isolates) of the same compound?
Answer: ≤0.0625 to 1 µg/mL

Question: And the MIC50 ([13]; Enterococcus faecium, E. faecium, 47 clinical isolates, read-out: MIC50)?
Answer: 0.25 µg/mL (≈ 0.414 µM)

Question: And the MIC90 ([13]; Enterococcus faecium, E. faecium, 47 clinical isolates, read-out: MIC90)?
Answer: 0.25 µg/mL (≈ 0.414 µM)

Question: And the MIC [14]?
Answer: ≤ 0.0625 µg/mL

Question: What about the MIC [15] of the same compound?
Answer: 0.25 µg/mL (≈ 0.414 µM)

Question: And the MIC [16]?
Answer: ≤ 0.0625 µg/mL

Question: What about the MIC [17] of the same compound?
Answer: ≤ 0.0625 µg/mL

Question: And the MIC [18]?
Answer: 0.125 µg/mL (≈ 0.207 µM)

Question: What about the MIC [19] of the same compound?
Answer: 0.125 µg/mL (≈ 0.207 µM)

Question: And the MIC [20]?
Answer: 0.25 µg/mL (≈ 0.414 µM)

Question: What about the MIC [21] of the same compound?
Answer: ≤ 0.0625 µg/mL
